From the supplement of paper PMC13380429

What was measured:
A549-ACE2 [1] = assay: drug-induced phospholipidosis relative to tamoxifen; higher = more phospholipidosis
U2OS [2] = assay: cell viability relative to DMSO; higher = less toxic; conditions: 72 h
Vero E6 [3] = assay: as above; conditions: 72 h
Calu-3 [4] = assay: as above; conditions: 72 h
Caco-2 [5] = assay: as above; conditions: 72 h
HepG2 [6] = assay: as above; conditions: 72 h
[7] = test system: A549-ACE2 infected with SARS-CoV-2; assay: morphology score (similarity to uninfected cells); higher = more like uninfected cells; conditions: 24 h
[8] = test system: A549-ACE2 infected with SARS-CoV-2; assay: SARS-CoV-2 infection rate relative to DMSO; higher = more infection; conditions: 24 h
[9] = test system: A549-ACE2 infected with SARS-CoV-2; assay: cell count relative to DMSO; higher = less toxic; conditions: 24 h
U2OS [10] = assay: drug sensitivity score (DSS) for viability; higher = more toxic; extreme values may be limits of the assay; conditions: 72 h
Vero E6 [11] = assay: as above; conditions: 72 h
Calu-3 [12] = assay: as above; conditions: 72 h
Caco-2 [13] = assay: as above; conditions: 72 h
HepG2 [14] = assay: as above; conditions: 72 h
U2OS [15] = assay: relative viability EC50 (midpoint between 100% and the lowest measured viability); higher = less toxic; conditions: 72 h
Vero E6 [16] = assay: as above; conditions: 72 h
Calu-3 [17] = assay: as above; conditions: 72 h
Caco-2 [18] = assay: as above; conditions: 72 h
HepG2 [19] = assay: as above; conditions: 72 h
A549-ACE2 [20] = assay: phospholipidosis EC50; higher = less potent phospholipidosis inducer

CCN(CC)C(=S)SSC(=S)N(CC)CC [disulfiram]
drug-induced phospholipidosis [%], A549-ACE2 [1]
Conditions | 0.3 µM | 0.833333 µM | 3.33333 µM | 6.66667 µM | 10 µM | 30 µM
24 h | 2.43 | -1.42 | 2.59 | -0.54 | 2.87 | 7.83
48 h | – | – | – | -0.28 | 1.88 | –
72 h | – | – | – | 1.75 | 1.77 | –

Conditions | SARS-CoV-2 infection rate, [8] [%] | cell count, [9] [%] | cell viability, Caco-2 [5] [%] | cell viability, Calu-3 [4] [%] | cell viability, HepG2 [6] [%] | cell viability, U2OS [2] [%] | cell viability, Vero E6 [3] [%] | morphology score, [7]
1 nM | – | – | 103 | 101 | 104 | 100 | 108 | –
10 nM | – | – | 90.1 | 90.5 | 103 | 99.6 | 104 | –
100 nM | – | – | 19.1 | 94.7 | 53.2 | 99 | 101 | –
0.3 µM | 84 | 105 | – | – | – | – | – | 0.44
1000 nM | – | – | 9.6 | 36.9 | 13.7 | 78 | 89.3 | –
3 µM | 76 | 106 | – | – | – | – | – | 0.45
10000 nM | – | – | 75.3 | 106 | 95 | 94.6 | 99.6 | –
10 µM | 27 | 63 | – | – | – | – | – | 0.51
30 µM | 32 | 58 | – | – | – | – | – | 0.35

Conditions | drug sensitivity score | relative viability EC50 [nM]
Caco-2 [13] | 27.5 | –
Caco-2 [18] | – | 31.4
Calu-3 [12] | 0 | –
Calu-3 [17] | – | > 10000
HepG2 [14] | 21.4 | –
HepG2 [19] | – | 93.6
U2OS [10] | 0.2 | –
U2OS [15] | – | > 10000
Vero E6 [11] | 0 | –
Vero E6 [16] | – | > 10000

OCCN1CCN(CCCN2c3ccccc3Sc3ccc(C(F)(F)F)cc32)CC1 [fluphenazine]
Conditions | SARS-CoV-2 infection rate [%] | cell count [%] | cell viability [%] | morphology score | phospholipidosis EC50 [nM]
A549-ACE2 [20], 24 h | – | – | – | – | 3490
A549-ACE2 [20], 48 h | – | – | – | – | 5080
A549-ACE2 [20], 72 h | – | – | – | – | 6620
Caco-2 [5], 1 nM | – | – | 101 | – | –
Caco-2 [5], 10 nM | – | – | 100 | – | –
Caco-2 [5], 100 nM | – | – | 88.2 | – | –
Caco-2 [5], 1000 nM | – | – | 85.2 | – | –
Caco-2 [5], 10000 nM | – | – | 64.4 | – | –
Calu-3 [4], 1 nM | – | – | 101 | – | –
Calu-3 [4], 10 nM | – | – | 110 | – | –
Calu-3 [4], 100 nM | – | – | 96.8 | – | –
Calu-3 [4], 1000 nM | – | – | 98.1 | – | –
Calu-3 [4], 10000 nM | – | – | 22.4 | – | –
HepG2 [6], 1 nM | – | – | 102 | – | –
HepG2 [6], 10 nM | – | – | 90.9 | – | –
HepG2 [6], 100 nM | – | – | 95.9 | – | –
HepG2 [6], 1000 nM | – | – | 96.1 | – | –
HepG2 [6], 10000 nM | – | – | 49.4 | – | –
U2OS [2], 1 nM | – | – | 101 | – | –
U2OS [2], 10 nM | – | – | 101 | – | –
U2OS [2], 100 nM | – | – | 94.7 | – | –
U2OS [2], 1000 nM | – | – | 92.6 | – | –
U2OS [2], 10000 nM | – | – | 84.2 | – | –
Vero E6 [3], 1 nM | – | – | 103 | – | –
Vero E6 [3], 10 nM | – | – | 100 | – | –
Vero E6 [3], 100 nM | – | – | 101 | – | –
Vero E6 [3], 1000 nM | – | – | 95.5 | – | –
Vero E6 [3], 10000 nM | – | – | 52 | – | –
[7], 0.1 µM | – | – | – | 0.13 | –
[7], 0.3 µM | – | – | – | 0.02 | –
[7], 1 µM | – | – | – | 0.49 | –
[7], 3 µM | – | – | – | 0.75 | –
[8], 0.1 µM | 97 | – | – | – | –
[8], 0.3 µM | 99 | – | – | – | –
[8], 1 µM | 83 | – | – | – | –
[8], 3 µM | 44 | – | – | – | –
[9], 0.1 µM | – | 103 | – | – | –
[9], 0.3 µM | – | 99 | – | – | –
[9], 1 µM | – | 90 | – | – | –
[9], 3 µM | – | 122 | – | – | –

drug-induced phospholipidosis [%], A549-ACE2 [1]
Conditions | 0.3 µM | 0.833333 µM | 3.33333 µM | 6.66667 µM | 10 µM | 30 µM
24 h | 3.92 | 11.1 | 44.3 | 81.8 | 103 | 78.9
48 h | 2.29 | 10 | 32.4 | 91.3 | 114 | –
72 h | 4.14 | 10.7 | 24.3 | 80.2 | 116 | –

Conditions | drug sensitivity score | relative viability EC50 [nM]
Caco-2 [13] | 3.4 | –
Calu-3 [12] | 4.5 | –
Calu-3 [17] | – | 2990
HepG2 [14] | 3.3 | –
HepG2 [19] | – | 2530
U2OS [10] | 0.5 | –
U2OS [15] | – | > 10000
Vero E6 [11] | 3.2 | –

CC(C)C[C@H](NC(=O)CNC(=O)c1cc(Cl)ccc1Cl)B(O)O [ixazomib]
A549-ACE2 [1], 0.3 µM
Conditions | drug-induced phospholipidosis [%]
24 h | -5.63
48 h | -3.87
72 h | -1.4

Conditions | SARS-CoV-2 infection rate, [8] [%] | cell count, [9] [%] | cell viability, Caco-2 [5] [%] | cell viability, Calu-3 [4] [%] | cell viability, HepG2 [6] [%] | cell viability, U2OS [2] [%] | cell viability, Vero E6 [3] [%] | morphology score, [7]
1 nM | – | – | 86.9 | 90 | 107 | 95.9 | 97.4 | –
10 nM | – | – | 102 | 99 | 105 | 93.4 | 99.3 | –
100 nM | – | – | 24.4 | 35.8 | 99.5 | 84.5 | 78.5 | –
0.1 µM | 99 | 90 | – | – | – | – | – | 0.03
0.3 µM | 98 | 80 | – | – | – | – | – | 0.25
1000 nM | – | – | 4.7 | 5.8 | 7.7 | 1.3 | 11.5 | –
1 µM | 64 | 72 | – | – | – | – | – | 0.26
3 µM | 46 | 59 | – | – | – | – | – | 0.26
10000 nM | – | – | 7.3 | 5.7 | 0.6 | -0.1 | 3.7 | –

Conditions | drug sensitivity score | relative viability EC50 [nM]
Caco-2 [13] | 25.9 | –
Caco-2 [18] | – | 58.8
Calu-3 [12] | 24.6 | –
Calu-3 [17] | – | 71.4
HepG2 [14] | 16.8 | –
HepG2 [19] | – | 383
U2OS [10] | 20.5 | –
U2OS [15] | – | 197
Vero E6 [11] | 18.9 | –
Vero E6 [16] | – | 218

CN1C(=O)/C(=C2/C(=O)Nc3ccccc32)c2ccccc21 [meisoindigo]
drug-induced phospholipidosis [%], A549-ACE2 [1]
Conditions | 0.3 µM | 0.833333 µM | 3.33333 µM | 6.66667 µM | 10 µM | 30 µM
24 h | -2.39 | -5.22 | -2.5 | -1.79 | – | 6.15
48 h | -0.22 | -2.93 | -2.52 | 0.92 | – | 4.45
72 h | 0.716 | -2.02 | -1.09 | 1.04 | 9.76 | 5.86

Conditions | SARS-CoV-2 infection rate, [8] [%] | cell count, [9] [%] | cell viability, Caco-2 [5] [%] | cell viability, HepG2 [6] [%] | cell viability, U2OS [2] [%] | cell viability, Vero E6 [3] [%] | morphology score, [7]
1 nM | – | – | 94.4 | 96.1 | 98 | 104 | –
10 nM | – | – | 104 | 101 | 102 | 102 | –
100 nM | – | – | 93.1 | 90.6 | 97.4 | 98.8 | –
0.1 µM | 103 | 101 | – | – | – | – | -0.25
0.3 µM | 103 | 102 | – | – | – | – | -0.21
1000 nM | – | – | 87.2 | 75.5 | 99 | 93.7 | –
1 µM | 102 | 98 | – | – | – | – | -0.24
3 µM | 97 | 101 | – | – | – | – | -0.12
10000 nM | – | – | 73.1 | 49 | 90.1 | 47.7 | –

Conditions | drug sensitivity score | relative viability EC50 [nM]
Caco-2 [13] | 2.2 | –
HepG2 [14] | 5.6 | –
HepG2 [19] | – | 868
U2OS [10] | 0 | –
U2OS [15] | – | > 10000
Vero E6 [11] | 3.8 | –
Vero E6 [16] | – | 2180
